Experimental findings from publication PMC12195982, “Design, Synthesis, and In Vitro Evaluation of 4-(Arylchalcogenyl)methyl)-1H-1,2,3-triazol-1-yl-menadione: Exploring Their Potential Against Tuberculosis” (Pharmaceuticals, 2025) are described below.

SMILES strings stand for the structures. ≈ marks a conversion by molar mass, not a printed value.

The test relates to INH- and RIF-resistant Mtb (strain T113/09, KatG and rpoB mutation). The format is cell-based, Mycobacterium tuberculosis.

`CC1=C(Cn2cc(C[Se]c3ccccc3)nn2)C(=O)c2ccccc2C1=O` [Compound 9a, 2-methyl-3-((4-((phenylselanyl)methyl)-1H-1,2,3-triazolyl)methyl)naphthalene-1,4-dione]: the “MIC INH/RIFR-Mtb” value is 3 µg/mL (≈ 7.1 µM) and the “fold more potent than INH” value is given as “at least 7 fold”.

On to `CC1=C(Cn2cc(C[Se]c3ccc(Cl)cc3)nn2)C(=O)c2ccccc2C1=O` [Compound 9b, 2-((4-(((4-chlorophenyl)selanyl)methyl)-1H-1,2,3-triazolyl)methyl)-3-methylnaphthalene-1,4-dione], for which the “MIC INH/RIFR-Mtb” value is recorded as no more than 3 µg/mL and the “fold more potent than INH” value is given as “at least 7 fold”.

For `CC1=C(Cn2cc(C[Se]c3cccc(C(F)(F)F)c3)nn2)C(=O)c2ccccc2C1=O` [Compound 9c], the “MIC INH/RIFR-Mtb” value is on record as greater than 99 µg/mL.

Consider `CC1=C(C(c2ccccc2)n2cc(C[Se]c3ccccc3)nn2)C(=O)c2ccccc2C1=O` (stereo not shown) [Compound 9g, 2-methyl-3-(phenyl(4-((phenylselanyl)methyl)-1H-1,2,3-triazolyl)methyl)naphthalene-1,4-dione], for which the “MIC INH/RIFR-Mtb” value was no more than 3 µg/mL and the “fold more potent than INH” value is reported as “at least 7 fold”.

With `CC1=C(C(c2ccc(C)cc2)n2cc(C[Se]c3ccccc3)nn2)C(=O)c2ccccc2C1=O` (stereo not shown) [Compound 9h, 2-methyl-3-((4-((phenylselanyl)methyl)-1H-1,2,3-triazolyl)(p-methylphenyl)methyl) naphthalene-1,4-dione], the “MIC INH/RIFR-Mtb” value is recorded as no more than 3 µg/mL and the “fold more potent than INH” value is recorded as “at least 7 fold”.

Regarding `NNC(=O)c1ccncc1` [INH, isoniazid, reference compound], the “MIC INH/RIFR-Mtb” value amounted to 8 µg/mL (≈ 58.3 µM).
